# Structures can show the parent of a compound that is named as a salt.
# Key:
# [1] = test system: labile Zn(II) pools in live NIH 3T3 mouse fibroblasts; experiment: Ratiometric TPEM imaging of labile Zn(II) in live cells; format: cell-based
# Method: FIG. 25A-25B. Ratiometric imaging of labile Zn(II) pools in live NIH 3T3 mouse fibroblasts with chromis-2 by TPEM (excitation at 720 nm). (FIG. 25A) Left: Phase contrast image (DIC) and fluorescence intensity images acquired with 425-462 nm (BP1) and 478-540 nm (BP2) bandpass filters, respectively. Right: Intensity ratio image with R=BP2/BP1. (FIG. 25B) Left: Ratio images (BP2/BP1) prior (at 3 min) and after addition of 50 μM ZnSO4 and 5 μM pyrithione (at 9 min). […] Right: Time course of the average intensity ratio change for the ROI indicated with a white circle in the left panel. The asterisks indicate time points for the respective ratio images shown to the left. Scale bars: 40 μm.
# To evaluate the Zn(II)-dependent ratiometric response of chromis-2 within the chemical complexity of a live cell, we performed a perfusion experiment with NIH 3T3 mouse fibroblasts as model system (FIG. 25). To this end, fibroblast cells were cultured in Dulbecco's modified Eagle's medium (DMEM, Lonza) supplemented with 10% bovine serum (Gemini), penicillin/streptomycin (50 IU/mL), 200 μM L-glutamine, and 100 μM sodium pyruvate at 37° C. under an atmosphere of humidified air containing 5% CO2. For imaging experiments, cells were grown to 70% confluency on MatTek glass bottom culture dishes pre-coated with poly-L-lysine using phenol red-free DMEM (10% bovine serum, 50 IU/mL penicillin/streptomycin, 200 μM L-glutamine, and 100 μM sodium pyruvate). After replacing the growth medium with serum-free DMEM containing chromis-2 (10 μM), cells were incubation for 30 minutes at 37° C. (5% CO2 atmosphere), and the incubation solution was again replaced with pre-warmed full media. Cells were imaged in an atmospheric chamber at 37° C., […], and 5% CO2 using a Zeiss LSM confocal NLO 710 microscope equipped with a femtosecond pulsed Ti:sapphire laser. Scanning fluorescence micrographs were acquired with excitation at 720 nm, and the integrated emission intensity was simultaneously collected through two band pass filters between 425-462 nm and 478-540 nm. The corresponding ratio-images were derived with ImageJ based on the integrated photon counts on a pixel-per-pixel basis (FIG. 25A, right). […] Although the fluorescence intensity distribution appears uneven, including distinct punctate localizations, the corresponding ratio-image indicates a rather even fractional saturation with an average ratio R of 0.64±0.2.
# [2] = Spectrophotometric pH titration, determination of protonation constants; format: physicochemical; conditions: aqueous 0.1 M KCl solution, 25° C., fit to a single protonation, read-out: ground-state pKa (pKH1) of the pyridyl acceptor
# Method: FIG. 12. Spectrophotometric pH titration of compound 1 at 25° C. in aqueous buffer (5 mM PIPBS, 0.1 M KCl, 5 mM KOH, pH 5.6). Black arrows indicate the change in absorbance after each aliquot of HCl was added. The absorbance from 250-500 nm was recorded as a function of pHe (−log[H3O^+]), and the data were analyzed by non-linear least squares fitting to a single protonation to yield an average pKH1=4.49±0.002 (n=3).
# FIG. 13. Spectrophotometric pH titration of compound 2 at 25° C. in 0.1 M KCl. Black arrows indicate the change in absorbance after each aliquot of HCl was added. The absorbance (250-500 nm) was recorded as a function of pHc (−log[H3O^+]), and the data were analyzed by non-linear least squares fitting to a single protonation to yield an average pKH1=2.34±0.002 (n=3).
# Protonation constants were determined as concentration constants (log KH) based on potentiometric titrations using a combination double junction glass electrode. […] From the experimental emf data, the endpoint, electrode potential, and slope were determined using Gran's Method as implemented in the GLEE software package (pKw=13.78, μ=0.1 M KCl).^1 The calibration procedure was performed prior to each potentiometric titration, and the experimental electrode potential and slope that were used to calculate the experimental p[H] were derived as the average of the emf data from three independent titrations. […]
# [3] = Excited-state pKa calculated using the Forster Cycle; format: physicochemical; conditions: calculated with the Forster Cycle
# Excerpt: To circumvent the issue of excited-state protonation of the fluorophore, the inventors synthesized a chromis-1 compound 1, whose structure lacked the bis(2-pyridylmethyl)amine chelating moiety but incorporated an O-alkylsulfonate group to enhance water solubility, to determine the unperturbed ground-state pKa of the pyridyl acceptor.
# [4] = Determination of fluorescence quantum yields (referenced to quinine sulfate); format: physicochemical; conditions: neutral form, 10 mM PIPES, 100 mM KCl, pH 7.0; sodium salt
# Method: Determination of Fluorescence Quantum Yields. Fluorescence quantum yields of 1, 2, 3b and chromis-2 (4) were determined in aqueous buffer (10 mM PIPES, 0.1 M KCl) at pH 7.0 by a 4-point measurement over an OD range of 0.1-0.4 using a […], with fluorimeter excitation at 365 nm. For probes 3b and chromis-2, the solutions containing the free forms were supplemented with 20 μM EDTA (from a 30 mM stock solution in diH2O) to sequester adventitious Zn(II), whereas to determine the Zn(II)-bound forms, the solutions were supplemented with 20 μM ZnSO4.7H2O to ensure complete saturation of the fluorophore. Fluorescence quantum yields for all fluorophores were determined using quinine sulfate (Df=0.546 in 1.0 N H2SO4) as a fluorescence standard.^2 To determine the quantum yield of 3a, single-point measurements were performed in aqueous buffer (10 mM PIPES, 0.1 M KCl, pH 7.0) supplemented with 100 μM 4:1 DMPC:DMPG liposomes and at a probe concentration of 2 μM. The quantum yields were also referenced to quinine sulfate with an OD matching that of 3a (2 μM) in liposomes.
# [5] = Fluorescence solvent deuterium-isotope studies (D2O vs H2O buffer); format: physicochemical
# Method: Fluorescence Deuterium-Isotope Studies of Compounds 1 & 2. Comparison of the fluorescence intensities of compounds 1 and 2 were conducted in deuterated and non-deuterated buffer (10 mM PIPES, 100 mM KCl, pH/D 7.0, 25° C.). A 3.0-mL solution of aqueous buffer was supplemented with 10 μM of each compound (from 3 mM stock solutions in H2O), and after thorough mixing via magnetic stirring, fluorescence spectra of 1 were acquired over the spectral window of 380-700 nm with excitation at […] and analogous fluorescence spectra of 2 were acquired over the spectral window of 380-650 nm with excitation at […].
# Fluorescence Comparison of 3b and chromis-2 (4). Fluorescence comparison measurements of 3b and chromis-2 were conducted in deuterated and non-deuterated buffer (10 mM PIPES, 100 mM KCl, pH/D 7.0, 25° C.). A quartz cuvette with a 1-cm path length containing 3.0 mL of aqueous buffer was supplemented with 5 μM 3b (from a 3 mM stock solution in H2O), and after a 30-second equilibration via magnetic stirring, a fluorescence spectrum was acquired over the spectral window of 380-700 nm with excitation at 361 nm. The probe was then saturated with 5 μM ZnSO4.7H2O (from a 3 mM stock solution in H2O), and a fluorescence spectrum was acquired. This was repeated for 3b in deuterated buffer, but with supplementation of 5 μM ZnSO4.7H2O from a 3 mM stock solution in D2O. […]
# [6] = Steady-state absorption and fluorescence spectroscopy, molar ratio titration with Zn(II); format: physicochemical
# Method: General Spectroscopic Methods. All buffers and stock solutions used for spectroscopic measurements were prepared using either HPLC-grade water (JT Baker) or 18.2 MΩ.cm Mili-Q water and filtered through a 0.2 μm filter to remove interfering dust particles or fibers. UV-Vis measurements were performed on a Varian Cary Bio50 spectrophotometer with a constant temperature accessory (Peltier) at 25° C. Fluorescence measurements were performed with a PTI fluorimeter equipped with a 75 W xenon arc lamp excitation source and a photomultiplier detection system (PMT voltage was 1100 V for all experiments). Fluorescence spectra were corrected for the spectral response of the detection system and for the spectral irradiance of the excitation source (via a calibrated photodiode). For all experiments, both UV-Vis and fluorescence, a 1-cm path length quartz cuvette was used, except for quantum yield determinations, which were performed with a 10-cm path length quartz cuvette for absorbance measurements.
# Molar Ratio Titration of Probe 3b with Zn(II). […] After each aliquot, the solution was equilibrated for 30 seconds by magnetic stirring, and an absorbance (spectral window: 250-500 nm) (FIG. 14A) and fluorescence spectrum (excitation: 361 nm, spectral window: 380-700 nm) (FIG. 14B) were acquired.
# Molar Ratio Titration of Chromis-2 with Zn(II). […] After each aliquot, the solution was equilibrated for 30 seconds by magnetic stirring, and an absorbance (spectral window: 250-500 nm) and fluorescence spectrum (excitation: 361 nm, spectral window: 380-700 nm) were acquired.
# [7] = UV-vis absorption spectra in methanol; format: physicochemical; conditions: methanol at 298 K, relative to compound I
# Excerpt: FIG. 26: UV-vis absorption spectra of compounds I, […] in methanol at 298 K.
# UV-vis Spectral Characterization of Compounds I, II, and III.
# [8] = in 1N H2SO4; cited from earlier work
# [9] = Neutral, 10 mM PIPES, 100 mM KCl, pH 7.0
Compound,pKa [2],pKa [3],ΦF fluorescence quantum yield [4],"Abs λmax [6, 9] [nm]","Em λmax [6, 9] [nm]","ε [6, 9]","Abs λmax ([6]; Protonated, 0.1N HCl (pH 1.0)) [nm]","Em λmax ([6]; Protonated, 0.1N HCl (pH 1.0)) [nm]","ε ([6]; Protonated, 0.1N HCl (pH 1.0))",change of UV-vis absorption spectrum (in words) [7],further results
COc1ccc(-c2cnc(-c3cccc(CN(Cc4ncccn4)Cc4ncccn4)n3)s2)cc1 [chromis-2],,,,,,,,,,,"increase of intensity ratio upon ZnSO4 and pyrithione ([1]; NIH 3T3): more than 4 fold; average intensity ratio R (BP2/BP1), initial ([1]; NIH 3T3, 10 μM probe, excitation 720 nm, before additions): 0.64±0.2; intensity ratio R after ZnSO4 and pyrithione ([1]; NIH 3T3, 50 μM ZnSO4 and 5 μM pyrithione): 2.36±0.6; intensity ratio R after TPEN ([1]; NIH 3T3, 100 μM TPEN): 0.55±0.2"
"O=S(=O)([O-])CCCOc1ccc(-c2cnc(-c3ccncc3)s2)cc1.[Na+] [compound 1, 3-(4-(2-(pyridin-4-yl)thiazol-5-yl)phenoxy)propane-1-sulfonate sodium salt]",4.49 ± 0.002,~11.7,0.65,346,489,1.80 10^4 M^−1cm^−1,397,582,1.96 10^4 M^−1cm^−1,,"increase in fluorescence intensity in D2O relative to H2O ([5]; 10 mM PIPES, 0.1 M KCl, pH/D 7.0, 25° C.): 18%"
CN(C)c1ccc(-c2cnc(-c3ccccn3)s2)cc1 [Compound II],,,,,,,,,,red-shifted absorption spectrum,
COc1ccc(-c2ccc(-c3cnc(-c4ccccn4)s3)s2)cc1 [Compound III],,,,,,,,,,red-shifted absorption spectrum,
"O=S(=O)([O-])CCCOc1ccc(-c2cnc(-c3ccccn3)s2)cc1.[Na+] [compound 2, 3-(4-(2-(pyridin-2-yl)thiazol-5-yl)phenoxy)propane-1-sulfonate sodium salt]",2.34,9.4,0.80,345,467,2.25 10^4 M^−1cm^−1,386,565,2.05 10^4 M^−1cm^−1,,excited-state pKa (pKa*) ([3]; sodium salt): 9.5; solvent deuterium isotope effect on emission (in words) ([5]; D2O versus H2O buffers): identical emission profiles
C=C[C@H]1C[N@@]2CC[C@H]1C[C@H]2[C@H](O)c1ccnc2ccc(OC)cc12 [quinine sulfate],,,,,,,,,,,ΦF of fluorescence standard [8]: 0.546

# Source: patent US11604141B2, “Zinc-selective fluorescent probes for emission-ratiometric imaging” (Georgia Tech Research Corporation, priority 2017, dated 2023)
